Experimental data as given in patent US9415134B2, “Fosfomycin preparation, a method for producing the preparation, and a polymethylmethacrylate bone cement powder containing the preparation” (HERAEUS MEDICAL GMBH, priority 2014, dated 2016).

Key:
[1] = Hygroscopic properties of fosfomycin salts; type: physicochemical; conditions: salt alone, atmospheric humidity
Source text: Both salts attract atmospheric humidity and deliquesce in the process. Experiments have shown that these salts, in the dry state, can be integrated into cement powders of polymethylmethacrylate bone cements. However, said cement powders also attract atmospheric humidity during storage on air, upon which the antibiotic particles deliquesce. This can cause the cement powder to clump. For this reason, both of these fosfomycin salts are unsuitable or poorly suitable for industrial production of antibiotic polymethylmethacrylate bone cement powders.

[2] = target: MurA (UDP-N-acetylglucosamine-enolpyruvyl-transferase) (Escherichia coli, UniProt P0A749); conditions: cited from earlier work
[3] = tested on: vancomycin-resistant Staphylococcus aureus (VRS); conditions: cited from earlier work
[4] = tested on: gram-negative and gram-positive bacteria including methicillin-resistant staphylococci; conditions: cited from earlier work
ESBL = conditions: cited from earlier work
[5] = tested on: vancomycin-resistant enterococci; conditions: cited from earlier work

Chain of MurA (UDP-N-acetylglucosamine-enolpyruvyl-transferase) (P0A749 whole entry): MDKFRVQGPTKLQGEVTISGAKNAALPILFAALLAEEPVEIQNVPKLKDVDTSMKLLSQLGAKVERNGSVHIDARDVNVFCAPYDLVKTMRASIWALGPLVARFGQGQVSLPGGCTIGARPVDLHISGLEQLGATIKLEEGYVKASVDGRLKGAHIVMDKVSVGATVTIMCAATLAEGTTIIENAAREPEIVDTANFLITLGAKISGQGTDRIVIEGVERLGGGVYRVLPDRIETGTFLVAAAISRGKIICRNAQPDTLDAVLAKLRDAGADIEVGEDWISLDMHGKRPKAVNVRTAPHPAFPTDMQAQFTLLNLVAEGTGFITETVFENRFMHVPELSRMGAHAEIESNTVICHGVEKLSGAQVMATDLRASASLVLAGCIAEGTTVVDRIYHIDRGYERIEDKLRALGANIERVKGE

C[C@@H]1O[C@@H]1P(=O)(O)O.NC(CO)(CO)CO [trometamol-fosfomycin]
Hygroscopic properties [1]: somewhat hygroscopic

C[C@@H]1O[C@@H]1P(=O)([O-])[O-].[Na+].[Na+] [sodium salt, disodium salt of fosfomycin]
Hygroscopic properties [1]: extraordinarily hygroscopic

C[C@@H]1O[C@@H]1P(=O)(O)O [Fosfomycin, (2R,3S)-3-methyloxiranphosphonic acid]
Inhibition of MurA [2]: inhibits
Antibacterial efficacy [3]: efficacious
Antibacterial activity ([4]; gram-negative and gram-positive bacteria including methicillin-resistant staphylococci): active
Mode of antibacterial action ([4]; in susceptible bacteria): bactericidal
Antibacterial efficacy (ESBL): efficacious
Antibacterial efficacy [5]: efficacious

C[C@@H]1O[C@@H]1P(=O)([O-])[O-].O.[Ca+2] [calcium salt of fosfomycin, monohydrate of the calcium salt of fosfomycin]
Hygroscopic properties [1]: extraordinarily hygroscopic
